The subject of data set [1] is Enterovirus A Coxsackievirus A16 (CVA16) isolate 49360. The data set can be described thus: microbe, parasite or virus in culture. The class given is cell-based. The following applies: RD, 120 h, read-out: EC50 (M ± SD), CVA16.
Data set [2] in a line: Cell viability assay for RD cells. The following applies: human.
The test system of data set [3] is Enterovirus B Echovirus 13 (E13) isolate 57088. The data set can be described thus: microbe, parasite or virus in culture. In kind it is cell-based. As to conditions: RD, 120 h, read-out: EC50 (M ± SD), E13.
Data set [4] can be described thus: Cell viability assay (resazurin) for Vero cells. As to conditions: African green monkey, confluent Vero cell monolayers.
The next data set relates to SARS-CoV-2 strain PIK35. The data set can be described thus: microbe, parasite or virus in culture. The following applies: Severe acute respiratory syndrome coronavirus 2, Vero, read-out: EC50 (M ± SD), SARS-CoV-2. The class given is cell-based.
Data set [5] concerns Enterovirus C vaccine strain Sabin 1 of poliovirus type 1 (PV1). The data set can be described thus: microbe, parasite or virus in culture. The class given is cell-based. The following applies: RD, 120 h, read-out: EC50 (M ± SD), PV1.
In a further data set the test system is CHIKV strain Nic. The data set can be described thus: microbe, parasite or virus in culture. In kind it is cell-based. The following applies: Chikungunya virus, Vero, read-out: EC50 (M ± SD), CHIKV.
The next data set concerns HIV-1 strain NL4-3. The data set can be described thus: microbe, parasite or virus in culture. The class given is cell-based. The following applies: Human immunodeficiency virus 1, NL43, MT4, 168 h, read-out: EC50 (M ± SD), HIV.
A short description of data set [6]: Cell viability assay for MT-4 cells. As to conditions: human.
The next data set in a line: physchem. As to conditions: aqueous with cosolvent or surfactant or cyclodextrin.

The structures appear in SMILES notation. Where a name gives a salt, the structure may show the parent alone. A value given as a limit tells only on which side of the number the result lay.

As for `O=c1nc(NO)ccn1[C@@H]1O[C@H](CO)[C@@H](O)[C@H]1O` [NHC, N^4-hydroxycytidine, reference compound], the EC50 in data set [1] came to 50 ± 18 µM; in [3], 17 ± 8 µM; with SARS-CoV-2 strain PIK35, 4.7 ± 2.9 µM; in data set [5] it was 25 ± 10 µM; in the data set with CHIKV strain Nic it was 23600 ± 10200 nM. For the same compound, the CC50 at 5 days in data set [2] and in data set [4] was more than 100 µM throughout.
Consider `Cc1cn([C@H]2C[C@H](N=[N+]=[N-])[C@@H](CO)O2)c(=O)[nH]c1=O` [AZT, azidothymidine, reference compound], for which the 50% effective concentration (EC50) in the data set with HIV-1 strain NL4-3 came to 0.01 µM. This compound also had a CC50 at 7 days in data set [6] of more than 5 µM.
Consider `CCCCCCOC(=O)c1c(Cl)c(Cl)c(Cl)c(Cl)c1-c1c2cc(I)c(=O)c(I)c-2oc2c(I)c(O)c(I)cc12` [2b, Rose Bengal N-Hexyl Ester, Monosodium Salt], for which the kinetic solubility in the data set “physchem” turned out to be 1 µM. Besides, the concentration for a half-maximal effect (EC50) was more than 100 µM in data set [1]; 4.4 ± 1.8 µM in the data set with HIV-1 strain NL4-3; more than 100 µM in data set [3]; 0.4 ± 0.3 µM with SARS-CoV-2 strain PIK35; more than 100 µM in [5]; 0.7 ± 0.3 nM in the data set on CHIKV strain Nic. Besides, the values for the CC50 at 5 days in data set [2] and in data set [4] were 21.3 ± 5.2 µM and 60 ± 15 µM, respectively. In data set [6], this compound yielded a half-maximal cytotoxic concentration (CC50) at 7 days of 15 ± 4 µM.
As for `CCCCCCCCCCOC(=O)c1c(Cl)c(Cl)c(Cl)c(Cl)c1-c1c2cc(I)c(=O)c(I)c-2oc2c(I)c(O)c(I)cc12` [2d, Rose Bengal N-Decyl Ester, Monosodium Salt], the EC50 is more than 100 µM in [1]; 8.8 ± 2.6 µM in the data set on HIV-1 strain NL4-3; more than 100 µM in data set [3]; 6.6 ± 3.1 µM in the data set with SARS-CoV-2 strain PIK35; more than 100 µM in data set [5]; 2 ± 1 nM in the data set on CHIKV strain Nic. For the same compound, the CC50 at 5 days in data set [2] amounted to 10.7 ± 2.6 µM; in [4], 60 ± 15 µM. Besides, the 50% cytotoxic concentration (CC50) at 7 days in data set [6] is 42 ± 10 µM.
Regarding `CCCCCCCCOC(=O)c1c(Cl)c(Cl)c(Cl)c(Cl)c1-c1c2cc(I)c(=O)c(I)c-2oc2c(I)c(O)c(I)cc12` [2c, Rose Bengal N-Octyl Ester, Monosodium Salt], the EC50 in data set [1] is more than 100 µM; with HIV-1 strain NL4-3 it was 8.8 ± 3.7 µM; in data set [3], more than 100 µM; with SARS-CoV-2 strain PIK35, 5.3 ± 1.3 µM; in data set [5], more than 100 µM; with CHIKV strain Nic it was 0.2 ± 0.1 nM. Moreover, the 50% cytotoxic concentration (CC50) at 5 days in data set [2] was determined as 21.3 ± 5.2 µM; in data set [4] it was 53 ± 25 µM. The same compound registered a half-maximal cytotoxic concentration (CC50) at 7 days in data set [6] of 42 ± 10 µM.
The compound `CCCCOC(=O)c1c(Cl)c(Cl)c(Cl)c(Cl)c1-c1c2cc(I)c(=O)c(I)c-2oc2c(I)c(O)c(I)cc12` [2a, Rose Bengal N-Butyl Ester, Monosodium Salt] yielded a solubility (kinetic) in “physchem” of 3.1 µM. Besides, the EC50 in data set [1] was more than 100 µM; with HIV-1 strain NL4-3 it was 6.3 ± 2.6 µM; in data set [3] it was more than 100 µM; in the data set on SARS-CoV-2 strain PIK35 it was 0.05 ± 0.02 µM; in [5] it was more than 100 µM; in the data set with CHIKV strain Nic, 4 ± 2 nM. For the same compound, the CC50 at 5 days in data set [2] is 21.3 ± 5.2 µM; in data set [4] it was 8 ± 1 µM. In addition, in data set [6], the CC50 at 7 days was 15 ± 4 µM.
On to `CCCCCCCCCCCCOC(=O)c1c(Cl)c(Cl)c(Cl)c(Cl)c1-c1c2cc(I)c(=O)c(I)c-2oc2c(I)c(O)c(I)cc12` [2e, Rose Bengal N-Dodecyl Ester, Monosodium Salt], for which the EC50 in data set [1] was more than 100 µM; with HIV-1 strain NL4-3, more than 50 µM; in [3] it was more than 100 µM; with SARS-CoV-2 strain PIK35, 43 ± 10 µM; in data set [5], more than 100 µM; in the data set on CHIKV strain Nic, 38 ± 30 nM. Moreover, the CC50 at 5 days was 21.3 ± 5.2 µM in data set [2] and more than 100 µM in data set [4]. For the same compound, the CC50 at 7 days in data set [6] is more than 50 µM.
For the compound `O=C(O)c1c(Cl)c(Cl)c(Cl)c(Cl)c1-c1c2cc(I)c(=O)c(I)c-2oc2c(I)c(O)c(I)cc12` [compound 1, Rose Bengal, disodium salt, reference compound], the kinetic solubility in “physchem” was more than 50 µM. For the same compound, the EC50 in data set [1] was more than 100 µM; in the data set with HIV-1 strain NL4-3, 18 ± 7 µM; in data set [3], more than 100 µM; in the data set on SARS-CoV-2 strain PIK35, 0.5 ± 0.2 µM; in data set [5] it was more than 100 µM; in the data set with CHIKV strain Nic it was 110 ± 50 nM. The CC50 at 5 days in data set [2] and in [4] was 43 ± 10 µM each time. Also, the CC50 at 7 days in [6] was more than 50 µM.

These data come from publication PMC9687286, “Hydrophobic Rose Bengal Derivatives Exhibit Submicromolar-to-Subnanomolar Activity against Enveloped Viruses” (Biomolecules, 2022).
